Laboratory results: PubChem BioAssay (NCI)
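Briefly, cells in 96-well plates were exposed to five compound concentrations for 48 h, and endpoints were estimated by linear interpolation. TGI denotes the concentration required for complete inhibition of growth.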

Experiments:
Test in all cases: NCI anticancer screen, dose series, 48 h
MDA-MB-435 = tested on: MDA-MB-435
SK-OV-3 ovarian = tested on: SK-OV-3 ovarian
HS 578T breast = tested on: HS 578T breast
SW-620 colon = tested on: SW-620 colon
RXF 393 renal = tested on: RXF 393 renal
COLO 205 colon = tested on: COLO 205 colon
SF-295 CNS = tested on: SF-295 CNS
MDA-MB-231 breast = tested on: MDA-MB-231 breast
U251 CNS = tested on: U251 CNS
OVCAR-5 ovarian = tested on: OVCAR-5 ovarian
KM12 colon = tested on: KM12 colon
SN12C renal = tested on: SN12C renal
HL-60(TB) leukemia = tested on: HL-60(TB) leukemia
NCI-H23 lung = tested on: NCI-H23 lung
CAKI-1 renal = tested on: CAKI-1 renal
NCI-H460 lung = tested on: NCI-H460 lung
BT-549 breast = tested on: BT-549 breast
HCC-2998 colon = tested on: HCC-2998 colon
SK-MEL-5 melanoma = tested on: SK-MEL-5 melanoma
HOP-92 NSCLC = tested on: HOP-92 NSCLC
MOLT-4 leukemia = tested on: MOLT-4 leukemia
OVCAR-3 ovarian = tested on: OVCAR-3 ovarian
ACHN renal = tested on: ACHN renal
HCT-15 colon = tested on: HCT-15 colon
SNB-19 CNS = tested on: SNB-19 CNS
IGROV1 ovarian = tested on: IGROV1 ovarian
MDA-N = tested on: MDA-N
T-47D breast = tested on: T-47D breast
NCI-H522 lung = tested on: NCI-H522 lung
A549 NSCLC = tested on: A549 NSCLC
EKVX NSCLC = tested on: EKVX NSCLC
SR leukemia = tested on: SR leukemia
HT29 colon = tested on: HT29 colon
NCI/ADR-RES ovarian = tested on: NCI/ADR-RES ovarian
HCT-116 colon = tested on: HCT-116 colon
OVCAR-4 ovarian = tested on: OVCAR-4 ovarian
SNB-75 CNS = tested on: SNB-75 CNS
CCRF-CEM leukemia = tested on: CCRF-CEM leukemia
DU-145 prostate = tested on: DU-145 prostate
SF-268 CNS = tested on: SF-268 CNS
A498 renal = tested on: A498 renal
HOP-62 NSCLC = tested on: HOP-62 NSCLC
UO-31 renal = tested on: UO-31 renal
NCI-H226 lung = tested on: NCI-H226 lung
PC-3 prostate = tested on: PC-3 prostate
SK-MEL-28 melanoma = tested on: SK-MEL-28 melanoma
786-0 renal = tested on: 786-0 renal
RPMI-8226 leukemia = tested on: RPMI-8226 leukemia
M14 melanoma = tested on: M14 melanoma
OVCAR-8 ovarian = tested on: OVCAR-8 ovarian
UACC-62 melanoma = tested on: UACC-62 melanoma
LOX IMVI melanoma = tested on: LOX IMVI melanoma
MCF7 breast = tested on: MCF7 breast
SK-MEL-2 melanoma = tested on: SK-MEL-2 melanoma
UACC-257 melanoma = tested on: UACC-257 melanoma
TK-10 renal = tested on: TK-10 renal
SF-539 CNS = tested on: SF-539 CNS
K-562 leukemia = tested on: K-562 leukemia

Measured: TGI

O=C(Cc1ccc(OCc2cccc(Cl)c2)cc1)NO
44.9 µM: HL-60(TB) leukemia
65.4 µM: NCI-H226 lung
50.8 µM: RPMI-8226 leukemia
32.5 µM: SR leukemia
82.7 µM: OVCAR-4 ovarian
43.5 µM: 786-0 renal
46.2 µM: T-47D breast
49 µM: LOX IMVI melanoma
76.5 µM: SN12C renal
68.2 µM: CAKI-1 renal
34.5 µM: OVCAR-8 ovarian
86 µM: ACHN renal
27 µM: A498 renal
50.4 µM: UO-31 renal
33.1 µM: MOLT-4 leukemia
42.5 µM: CCRF-CEM leukemia
66.2 µM: DU-145 prostate
55.4 µM: UACC-62 melanoma
39.3 µM: NCI/ADR-RES ovarian
> 100 µM: all other assays above

C=CC(O)C#Cc1cnc(OC)nc1OC (centres undefined)
43.9 µM: HL-60(TB) leukemia
33 µM: A498 renal
66.6 µM: K-562 leukemia
47.9 µM: CCRF-CEM leukemia
not listed: SK-OV-3 ovarian | RPMI-8226 leukemia
> 100 µM: all other assays above
